Target: human phosphodiesterase-5 (PDE5) (Homo sapiens, UniProt O76074)
Assay: PDE5 assay (3H-cGMP as tracer)
Assay type: biochemical
Conditions: read-out: Inhibitory activity [%], PDE5

CCCc1nn(C)c2c(=O)[nH]c(-c3cc(S(=O)(=O)N4CCN(C)CC4)ccc3OCC)nc12 [Sildenafil]
inhibition at 1 pM: 5% | inhibition at 0.0001 µM: 21% | inhibition at 0.01 µM: 52% | inhibition at 1 µM: 74%

Source: patent publication US7914827B2, “Use of extracts or extractants of the guajacum types, said extracts or extractants bringing about phosphodiesterase-4 inhibition and method for producing the same” (Max Zeller Soehne AG, priority 2006, dated 2011)
